Results reported in patent US20180071296A1, “COMBINATION THERAPY COMPRISING AN INHIBITOR OF JAK, CDK, AND PIM” (Novartis AG, priority 2013, published 2018).

What was measured:
Assay type in all cases: in vivo
[1] = test system: Ba/F3-EpoR-JAK2^V617F cells; experiment: Total tumor load (bioluminescence, IVIS xenogen) in mouse MPN model; details: study endpoint; for reduction of total tumor load (level of bioluminescence) relative to the vehicle control: first experiment, FIG. 1, Compound A 60 mg/kg PO BID, Compound B 75 mg/kg PO QD, alone or combined, SCID/Beige mice
Text: The combination of Compound A, Compound B and Compound C was examined in a mouse model of MPN. In this model, Ba/F3 cells harbored Epo Receptor and JAK2 V617F mutations. Ba/F3-EpoR-JAK2^V617F was engineered with a luciferase tag for experimental imaging. Female SCID/Beige mice were inoculated with 1x10e6 Ba/F3-EpoR-JAK2^V617F cells through the tail vein. Total tumor load was monitored with IVIS xenogen technology. It is defined as the sum of dorsal and ventral photon signal.
In the first experiment, disease-bearing mice were randomized into treatment cohorts, based on the disease burden. Mice were treated with vehicle, Compound B at 75 mg/kg, by oral gavage (PO) daily (QD), Compound A at 60 mg/kg, PO, twice daily (BID) and the combination of both agents.
In the second experiment, disease-bearing mice were randomized into treatment cohort, based on the disease burden. Mice were treated with vehicle, Compound A at 60 mg/kg, PO, twice daily (BID), and the triple combination of Compound A, Compound B (at 75 mg/kg, QD, PO) and Compound C (at 25 mg/kg, QD, PO).

[2] = test system: Ba/F3-EpoR-JAK2^V617F cells; experiment: Spleen weight at study endpoint in mouse MPN model
Experimental: (§1) The combination of Compound A, Compound B and Compound C was examined in a mouse model of MPN. In this model, Ba/F3 cells harbored Epo Receptor and JAK2 V617F mutations. Ba/F3-EpoR-JAK2^V617F was engineered with a luciferase tag for experimental imaging. Female SCID/Beige mice were inoculated with 1x10e6 Ba/F3-EpoR-JAK2^V617F cells through the tail vein. […] Additionally, JAK2V617F allele burden, defined as the relative ratio of JAK2V617F over wild type JAK2, is measured by taqman in PBMCs at study endpoint.
(§2) In the first experiment, disease-bearing mice were randomized into treatment cohorts, based on the disease burden. Mice were treated with vehicle, Compound B at 75 mg/kg, by oral gavage (PO) daily (QD), Compound A at 60 mg/kg, PO, twice daily (BID) and the combination of both agents. At study endpoint, spleen weight from each of the study cohorts was obtained. Relative change in the spleen weight was calculated by normalizing individual spleen weight against the mean spleen weight of the cohort receiving vehicle treatment.
In the second experiment, disease-bearing mice were randomized into treatment cohort, based on the disease burden. Mice were treated with vehicle, Compound A at 60 mg/kg, PO, twice daily (BID), and the triple combination of Compound A, Compound B (at 75 mg/kg, QD, PO) and Compound C (at 25 mg/kg, QD, PO). At study endpoint, spleen weight from each of the study cohorts was obtained. Relative spleen weight was calculated by normalizing individual spleen weight against the mean spleen weight of the cohort receiving vehicle treatment.

[3] = test system: JAK2V617F allele burden; experiment: JAK2V617F allele burden in PBMC (taqman) at study endpoint in mouse MPN model; details: second experiment, FIG. 6, Compound A 60 mg/kg PO BID alone or with Compound B 75 mg/kg QD PO and Compound C 25 mg/kg QD PO
Experimental: as §1, §2
In the second experiment, disease-bearing mice were randomized into treatment cohort, based on the disease burden. […] Relative spleen weight was calculated by normalizing individual spleen weight against the mean spleen weight of the cohort receiving vehicle treatment.

[4] = first experiment, FIG. 2, Compound A 60 mg/kg PO BID, Compound B 75 mg/kg PO QD, alone or combined

SMILES	reduction of total tumor load (level of bioluminescence) relative to the vehicle control [1]	reduction of total tumor load (level of bioluminescence) ([1]; second experiment, FIG. 4, Compound A 60 mg/kg PO BID alone or with Compound B 75 mg/kg QD PO and Compound C 25 mg/kg QD PO)	reduction of spleen weight relative to that of the vehicle control [2, 4]	reduction of spleen weight relative to that of the vehicle control ([2]; second experiment, FIG. 5, Compound A 60 mg/kg PO BID alone or with Compound B 75 mg/kg QD PO and Compound C 25 mg/kg QD PO)	down-modulation of JAK2V617F allele burden [3]
N#CC[C@H](C1CCCC1)n1cc(-c2ncnc3[nH]ccc23)cn1 [Compound A, (3R)-3-cyclopentyl-3-[4-(7H-pyrrolo[2,3-d]pyrimidin-4-yl)pyrazol-1-yl]propanenitrile]	~79%	~70%	~62%	~53%	~15%
CN(C)C(=O)c1cc2cnc(Nc3ccc(N4CCNCC4)cn3)nc2n1C1CCCC1 [Compound B, 7-Cyclopentyl-2-(5-piperazin-1-yl-pyridin-2-ylamino)-7H-pyrrolo[2,3-d]pyrimidine-6-carboxylic acid dimethylamide]	~77%		~38%		
